This is an account of results in PubChem BioAssay AID1259407 (Chemical Carcinogenesis Research Information System (CCRIS), 2018).

In this series the test system is CCRIS mutagenicity, Ames/micronucleus/aberration tests. The series can be described thus: CCRIS mutagenicity studies.
[1] abbreviates: Test System: AMES SALMONELLA TYPHIMURIUM, Strain/Indicator: TA98, Metabolic Activation: NONE, Method: STANDARD PLATE.
The mark [2] stands for this setting: Test System: AMES SALMONELLA TYPHIMURIUM, Strain/Indicator: TA98, Metabolic Activation: RAT, LIVER, S-9, AROCLOR 1254, Method: STANDARD PLATE.
Setting [3] is: Test System: AMES SALMONELLA TYPHIMURIUM, Strain/Indicator: TA100, Metabolic Activation: NONE, Method: PREINCUBATION
The mark [4] stands for this setting: Test System: AMES SALMONELLA TYPHIMURIUM, Strain/Indicator: TA100, Metabolic Activation: NONE, Method: STANDARD PLATE.
The mark [5] stands for this setting: Test System: AMES SALMONELLA TYPHIMURIUM, Strain/Indicator: TA100, Metabolic Activation: RAT, LIVER, S-9, AROCLOR 1254, Method: STANDARD PLATE.
[6] abbreviates: Test System: AMES SALMONELLA TYPHIMURIUM, Strain/Indicator: TA1535, Metabolic Activation: NONE, Method: STANDARD PLATE.
Setting [7] is: Test System: AMES SALMONELLA TYPHIMURIUM, Strain/Indicator: TA1535, Metabolic Activation: RAT, LIVER, S-9, AROCLOR 1254, Method: STANDARD PLATE.
The mark [8] stands for this setting: Test System: AMES SALMONELLA TYPHIMURIUM, Strain/Indicator: TA1537, Metabolic Activation: NONE, Method: STANDARD PLATE.
Setting [9] is: Test System: AMES SALMONELLA TYPHIMURIUM, Strain/Indicator: TA1537, Metabolic Activation: RAT, LIVER, S-9, AROCLOR 1254, Method: STANDARD PLATE.
The mark [10] stands for this setting: Test System: AMES SALMONELLA TYPHIMURIUM, Strain/Indicator: TA1538, Metabolic Activation: NONE, Method: STANDARD PLATE.
[11] abbreviates: Test System: AMES SALMONELLA TYPHIMURIUM, Strain/Indicator: TA1538, Metabolic Activation: RAT, LIVER, S-9, AROCLOR 1254, Method: STANDARD PLATE.

Calls of active or inactive are those of the source. No rule for the calls is given here.

Consider `CC(=O)O[C@]1(C(C)=O)CC[C@H]2[C@@H]3C4OC4(Cl)C4=CC(=O)[C@@H]5C[C@@H]5[C@]4(C)[C@H]3CC[C@@]21C` (stereo partly drawn), for which the mutagenic call runs as follows: (Test System: AMES SALMONELLA TYPHIMURIUM, Strain/Indicator: TA98, Metabolic Activation: NONE, Method: PREINCUBATION) “inactive; negative”; under setting [1], “inactive; negative”; (Test System: AMES SALMONELLA TYPHIMURIUM, Strain/Indicator: TA98, Metabolic Activation: RAT, LIVER, S-9, AROCLOR 1254, Method: PREINCUBATION) “inactive; negative”; under setting [2], “inactive; negative”; under setting [3], “inactive; negative”; under setting [4], “inactive; negative”. In addition, the mutagenic call (Test System: AMES SALMONELLA TYPHIMURIUM, Strain/Indicator: TA100, Metabolic Activation: RAT, LIVER, S-9, AROCLOR 1254, Method: PREINCUBATION) was “inactive; negative”; the mutagenic call under setting [5] is “inactive; negative”; the mutagenic call (Test System: AMES SALMONELLA TYPHIMURIUM, Strain/Indicator: TA1535, Metabolic Activation: NONE, Method: PREINCUBATION) is “inactive; negative”; the mutagenic call under setting [6] was “inactive; negative”; the mutagenic call (Test System: AMES SALMONELLA TYPHIMURIUM, Strain/Indicator: TA1535, Metabolic Activation: RAT, LIVER, S-9, AROCLOR 1254, Method: PREINCUBATION) is “inactive; negative”; the mutagenic call under setting [7] was “inactive; negative”. Besides, the mutagenic call is, setting by setting: (Test System: AMES SALMONELLA TYPHIMURIUM, Strain/Indicator: TA1537, Metabolic Activation: NONE, Method: PREINCUBATION) “inactive; negative”; under setting [8], “inactive; negative”; (Test System: AMES SALMONELLA TYPHIMURIUM, Strain/Indicator: TA1537, Metabolic Activation: RAT, LIVER, S-9, AROCLOR 1254, Method: PREINCUBATION) “inactive; negative”; under setting [9], “inactive; negative”; (Test System: AMES SALMONELLA TYPHIMURIUM, Strain/Indicator: TA1538, Metabolic Activation: NONE, Method: PREINCUBATION) “inactive; negative”; under setting [10], “inactive; negative”. Further, the mutagenic call was “inactive; negative” (Test System: AMES SALMONELLA TYPHIMURIUM, Strain/Indicator: TA1538, Metabolic Activation: RAT, LIVER, S-9, AROCLOR 1254, Method: PREINCUBATION) and “inactive; negative” under setting [11].

With `CC12OOC1(COC(=O)Nc1ccc(Cl)cc1)Oc1ccccc12` (stereo not drawn), the mutagenic call under setting [3] is “active; positive”.

Consider `Cc1c2ccncc2c(C)c2c1[nH]c1ccc(N)cc12`, for which the mutagenic call is, setting by setting: under setting [1], “active; positive”; (Test System: AMES SALMONELLA TYPHIMURIUM, Strain/Indicator: TA98, Metabolic Activation: RAT, LIVER, S-9, PHENOBARBITAL, Method: STANDARD PLATE) “active; positive”; under setting [4], “inactive; negative”; (Test System: AMES SALMONELLA TYPHIMURIUM, Strain/Indicator: TA100, Metabolic Activation: RAT, LIVER, S-9, PHENOBARBITAL, Method: STANDARD PLATE) “inactive; negative”; under setting [8], “active; positive”; (Test System: AMES SALMONELLA TYPHIMURIUM, Strain/Indicator: TA1537, Metabolic Activation: RAT, LIVER, S-9, PHENOBARBITAL, Method: STANDARD PLATE) “active; positive”. The mutagenic call by setting is: under setting [10], “active; positive”; (Test System: AMES SALMONELLA TYPHIMURIUM, Strain/Indicator: TA1538, Metabolic Activation: RAT, LIVER, S-9, PHENOBARBITAL, Method: STANDARD PLATE) “active; positive”.

On to `O=NN(c1ccc([N+](=O)[O-])cc1)C1OC[C@@H](O)[C@H](O)[C@@H]1O` (stereo partly drawn), for which the mutagenic call under setting [4] is “active; positive”.

As for `Nc1cc([N+](=O)[O-])c(CO)c([N+](=O)[O-])c1`, the mutagenic call runs as follows: (End Point: In vitro chromosomal aberrations, Test System: V79 Chinese hamster fibroblasts, Metabolic Activation: None) “inactive; negative”; (Test System: Ames Salmonella typhimurium, Strain/Indicator: TA98, Metabolic Activation: None, Method: Standard plate) “active; positive”; (Test System: Ames Salmonella typhimurium, Strain/Indicator: TA98, Metabolic Activation: Rat, Liver, S-9, Method: Standard plate) “active; positive”; (Test System: Ames Salmonella typhimurium, Strain/Indicator: TA98NR, Metabolic Activation: None, Method: Standard plate) “active; positive, ta98nr is the nitroreductase-deficient derivative of ta98”; (Test System: Ames Salmonella typhimurium, Strain/Indicator: TA100, Metabolic Activation: None, Method: Standard plate) “active; positive”; (Test System: Ames Salmonella typhimurium, Strain/Indicator: TA100, Metabolic Activation: Rat, Liver, S-9, Method: Standard plate) “active; positive”.

Take `CC(CN1CC(=O)NC(=O)C1)N1CC(=O)NC(=O)C1` (stereo not drawn): the mutagenic call by setting is: under setting [1], “inactive; negative”; under setting [2], “inactive; negative”; under setting [4], “inactive; negative”; under setting [5], “inactive; negative”; under setting [6], “inactive; negative”; under setting [7], “inactive; negative”. Further, the mutagenic call by setting is: under setting [8], “inactive; negative”; under setting [9], “inactive; negative”; under setting [10], “inactive; negative”; under setting [11], “inactive; negative”; (Test System: CHINESE HAMSTER V-79, Strain/Indicator: V-79/8-AZAGUANINE, Metabolic Activation: NONE, Method: STANDARD PLATE) “active; positive”; (Test System: MOUSE LYMPHOMA, Strain/Indicator: L5178Y (TK+/TK-), Metabolic Activation: NONE, Method: SUSPENSION/PLATE) “active; positive”.

For `CC(=O)c1ccc(N=O)cc1`, the mutagenic call runs as follows: under setting [1], “active; positive”; under setting [2], “active; positive”; under setting [4], “active; positive”; under setting [5], “inactive; negative”.

With `[N-]=[N+]=Nc1ccc2c(Nc3ccc(NS(=O)(=O)CCCN)cc3)c3cc(N=[N+]=[N-])ccc3nc2c1`, the mutagenic call under setting [8] is “active; positive”.

`COc1nc(C(Cl)(Cl)Cl)c(Cl)c(OC)c1Cl`: under “Test System: Mouse lymphoma, Strain/Indicator: L5178Y (tk+/tk-), Metabolic Activation: Rat, Liver, S-9, Aroclor 1254, Method: Suspension/plate”, the mutagenic call was “active; positive”.

Turning to `CC(=O)[O-].CC(=O)[O-].O.O.O.[Pb+2]`, the mutagenic call was “active; positive (aneugenic above 0.05 um)” (End Point: IN VITRO MICRONUCLEUS, Test System: HAMSTER V79 CELLS, Metabolic Activation: NONE); “inactive; negative” (End Point: IN VIVO MICRONUCLEUS, Test System: BLOOD ERYTHROCYTES AND RETICULOCYTES, Species: RAT, Strain/Sex: WISTAR/MALE, FEMALE (SUCKLING), Route: IP INJECTION); “active; positive” (End Point: IN VIVO MICRONUCLEUS, Test System: RETICULOCYTES, ERYTHROCYTES, Species: RAT, Strain/Sex: WISTAR/MALE, FEMALE (SUCKLING), Route: ORAL); “active; positive” (End Point: In vivo micronucleus, Test System: Bone marrow polychromatic erythrocytes, Species: Rat, Strain/Sex: Wistar/Male, female, Route: Oral).
